From patent publication US8729097B2, “Quinoline compounds as inhibitors of angiogenesis, human methionine aminopeptidase, and SIRT1, and methods of treating disorders” (The Johns Hopkins University, priority 2008, dated 2014)
Values joined by “and” are separate entries in the source; they are usually repeats but may differ in a detail not shown here. Equal values may be shown once. Read-outs that look alike come from different tables or passages of the source.

Tests used:
hMetAP2 = molecular target: T1, hMetAP2 (Homo sapiens, UniProt P50579); assay: MetAP enzymatic assay, hMetAP2; type: biochemical; conditions: Co^2+ versus Mn^2+
T1 construct: made in house
T1 sequence (P50579 whole entry): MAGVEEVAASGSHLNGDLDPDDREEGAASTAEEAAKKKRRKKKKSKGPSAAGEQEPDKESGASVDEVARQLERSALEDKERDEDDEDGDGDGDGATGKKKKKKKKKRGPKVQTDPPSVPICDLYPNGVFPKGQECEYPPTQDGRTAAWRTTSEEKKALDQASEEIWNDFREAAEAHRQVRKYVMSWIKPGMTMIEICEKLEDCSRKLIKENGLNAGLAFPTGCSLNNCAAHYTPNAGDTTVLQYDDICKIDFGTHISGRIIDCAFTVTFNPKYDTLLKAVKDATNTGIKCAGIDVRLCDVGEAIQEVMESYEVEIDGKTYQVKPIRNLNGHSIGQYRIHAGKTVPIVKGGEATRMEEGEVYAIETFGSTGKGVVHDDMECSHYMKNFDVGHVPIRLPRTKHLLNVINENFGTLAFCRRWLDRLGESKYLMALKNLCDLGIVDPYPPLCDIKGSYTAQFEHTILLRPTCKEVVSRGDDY

HUVEC [1] = assay: HUVEC proliferation, [3H]-thymidine incorporation assay; type: cell-based, human; conditions: Homo sapiens, HUVEC
Experimental: HCC1954 cells were grown in RPMI1640 containing 10% FBS. HUVEC were grown using the EGM-2 bullet kit (Cambrex) as per manufacturer's instructions. The cells were maintained in a humidified incubator adjusted to 5% CO2. For drug screening, 10 mM stock solutions of Johns Hopkins Drug Library were arrayed in 96-well plates and screened at a final concentration of 10 μM. The cell growth was determined using a [^3H]-thymidine incorporation assay. Cells (typically 5,000 cells/well) were seeded in 96-well plates containing 0.2 ml of growth media and allowed to adhere for 24 h. The cells were then treated with drugs for 24 h. Cells were pulsed with 1 μCi [^3H]-thymidine (MP Biomedicals, 6.7 Ci mmol^−1) for 8 h and harvested, upon trypsin treatment, onto glass fiber filters (Wallac, Turku, Finland), from which ^3H counts were determined using a Perkin Elmer MicroBeta plate reader.

HFF = HFF proliferation (selectivity); type: cell-based; conditions: Homo sapiens, HFF; Table 2
[2] = system: Saccharomyces cerevisiae strain BY4743; assay: Yeast growth assay (wild type, map1Δ, map2Δ); type: cell-based; conditions: drug on paper disc
Text: Saccharomyces cerevisiae strain BY4743 (MATa/α his3Δ1/his3Δ1 leu2Δ0/leu2Δ0 lys2Δ0/LYS2) and its isogenic haploid derivatives for MetAP1 (map1Δ) and MetAP2 (map2Δ) deletion mutants were used for yeast growth assays. Drugs dissolved in DMSO were spotted onto sterile filter disks and dried before experiments. Exponentially growing yeast strains were mixed with top agar and plated on YPD (1% yeast extract/2% peptone/2% glucose) plates. The filter disks were then placed on the YPD plates containing yeasts and the incubation was continued for 48 h at 30° C.

[3] = system: p53 and Rb pathways in HUVECs; assay: Western blot of p53, p21 and Rb in HUVEC; type: cell-based, human
Experimental: (§1) Cells were lysed by adding 1 volume of 2× Laemmli buffer and were then boiled for 5 min. The samples were separated by SDS-PAGE and transferred to nitrocellulose membrane (Bio-Rad). Proteins were detected using primary antibodies for p53 (Santa Cruz), met-14-3-3γ (Novus), p21 (Santa Cruz), Rb (Santa Cruz), MetAP2 (Hu, X. et al (2006) Proc. Natl. Acad. Sci. U.S.A. 103, 18148-18153), SirT1 (Santa Cruz), acetyl-p53-K382 (Abeam), acetyl-tubulin (Sigma), histone-H3 (Santa Cruz), acetyl-H3 (Santa Cruz) and α-tubulin (TU-02, Santa Cruz) followed by the incubation with horseradish peroxidase (HRP)-conjugated anti-mouse or anti-rabbit antibodies (Santa Cruz) and enhanced chemiluminescence (ECL, Amersham).

HUVEC [4] = assay: Senescence associated-β-galactosidase (SA-β-gal) staining in HUVEC; type: cell-based, human
Experimental: Cells in 6-well plates were washed with PBS and fixed with 3% paraformaldehyde. After washing with PBS, the cells were incubated for 24 h at 37° C. (without CO2, protected from light) in freshly prepared SA-β-gal staining solution containing 1 mg/ml 5-bromo-4-chloro-3-indolyl β-D-galactopyranoside (X-gal), 5 mM potassium ferrocyanide, 5 mM potassium ferricyanide, 150 mM NaCl, 2 mM MgCl2 and 40 mM citric acid, titrated with NaH2PO4 to pH 6.0. SA-β-gal solution was then removed and the cells were washed with PBS. The stained cells were observed under a microscope.

[5] = system: acetylation of p53 (K382), α-tubulin and histone-H3; assay: Acetylation status of sirtuin substrates in HUVEC (Western blot); type: cell-based, human
Experimental: as §1

[6] = system: angiogenesis in Matrigel plugs; assay: Matrigel plug assay in vivo; conditions: 60 mg/kg, i.p., nude mice, versus vehicle
Experimental: Female athymic nude mice (NCR nu/nu, 4-6 weeks old) were purchased from NCI-Frederick, Md. and treated in accordance with Johns Hopkins Animal Care and Use Committee procedures. […] Mice were pre-treated for 3 days before 0.5 mL of Matrigel (BD Biosciences) containing 150 ng/ml VEGF and 200 ng/ml bFGF was implanted subcutaneously. Drug treatment was continued daily for an additional 10 days. Mice were sacrificed, and Matrigel plugs were harvested, fixed in neutral buffered formalin, and processed for histology using MAS-trichrome staining. A cross-section of the entire Matrigel plug was photographed at ×100. And erythrocyte-filled blood vessels were counted per field in a blinded manner.

SirT1 = molecular target: T2, SirT1 (Homo sapiens, UniProt Q96EB6); assay: biochemical; conditions: SirT1 IC50, recombinant human sirtuin, fluorogenic substrate
T2 sequence (Q96EB6 1-747): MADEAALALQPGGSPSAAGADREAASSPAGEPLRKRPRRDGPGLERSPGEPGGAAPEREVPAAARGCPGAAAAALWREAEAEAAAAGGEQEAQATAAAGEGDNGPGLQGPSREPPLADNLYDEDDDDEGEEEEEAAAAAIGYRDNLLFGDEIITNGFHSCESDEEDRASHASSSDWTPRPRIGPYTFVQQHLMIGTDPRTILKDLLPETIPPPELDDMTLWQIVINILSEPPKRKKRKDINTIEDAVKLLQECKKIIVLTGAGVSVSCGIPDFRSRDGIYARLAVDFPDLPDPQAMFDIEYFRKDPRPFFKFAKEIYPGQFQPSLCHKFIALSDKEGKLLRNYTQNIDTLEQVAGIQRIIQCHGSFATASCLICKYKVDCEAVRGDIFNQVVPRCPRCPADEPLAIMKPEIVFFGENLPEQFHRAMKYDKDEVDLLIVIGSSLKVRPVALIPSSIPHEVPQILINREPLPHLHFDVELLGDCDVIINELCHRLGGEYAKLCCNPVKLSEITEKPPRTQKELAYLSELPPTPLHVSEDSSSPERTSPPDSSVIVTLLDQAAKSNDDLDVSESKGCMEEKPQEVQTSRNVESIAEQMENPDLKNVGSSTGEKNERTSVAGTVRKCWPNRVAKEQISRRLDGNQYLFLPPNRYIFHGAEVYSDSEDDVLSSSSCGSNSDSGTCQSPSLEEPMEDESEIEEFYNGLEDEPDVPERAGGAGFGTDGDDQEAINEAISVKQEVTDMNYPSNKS
Experimental: (§2) The sirtuin fluorometric assay kits were obtained from Biomol. The assay was conducted according to the manufacturer's instruction. One unit of SirT1 was used per reaction. For SirT2 and SirT3, 2 units were used for the assay.

SirT2 = SirT2 (Homo sapiens, UniProt Q8IXJ6); assay: biochemical; conditions: SirT2 IC50, recombinant human sirtuin, fluorogenic substrate
Sequence of SirT2 (Q8IXJ6 whole entry): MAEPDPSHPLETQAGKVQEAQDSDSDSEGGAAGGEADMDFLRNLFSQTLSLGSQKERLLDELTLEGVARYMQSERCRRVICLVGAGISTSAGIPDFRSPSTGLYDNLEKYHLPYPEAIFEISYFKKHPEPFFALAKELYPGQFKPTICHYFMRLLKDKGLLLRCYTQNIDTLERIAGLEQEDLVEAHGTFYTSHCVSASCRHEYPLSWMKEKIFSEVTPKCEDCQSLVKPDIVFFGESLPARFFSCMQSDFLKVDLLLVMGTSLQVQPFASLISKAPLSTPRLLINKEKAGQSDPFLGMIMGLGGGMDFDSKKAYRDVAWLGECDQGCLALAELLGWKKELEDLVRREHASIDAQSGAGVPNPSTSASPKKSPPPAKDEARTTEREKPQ
Experimental: as §2

## O=[N+]([O-])c1ccc(O)c2ncccc12 [Entry 1c, nitroxoline]
hMetAP2
  potency on MetAP-2 with Co^2+ lower than with Mn^2+: 25 fold
HUVEC [1]; read-out: Selectivity HUVEC IC50
  IC50: 1.98 µM
HUVEC [1]; Table 4, read-out: HUVEC IC50
  IC50: 1.98 µM
HFF
  IC50: 13.6 µM
[2]; map1Δ
  growth of MetAP-1 deletion mutant (map1Δ): significantly inhibited
[2]; map2Δ
  growth of MetAP-2 deletion mutant: did not affect the growth
[2]; wild type
  growth of wild-type yeast: did not inhibit the yeast growth
[3]
  p53 protein level: upregulation
[3]; 8% SDS-PAGE
  Rb hyperphosphorylation: inhibited its hyperphosphorylation
[3]; 12% SDS-PAGE
  total amount of Rb protein: increased the total amount of Rb protein
[3]; longer incubation
  p21 protein level on longer incubation: upregulated
[3]; up to 72 h
  p53 protein level on prolonged exposure: sustained increase in p53 protein level
[3]; within 24 h of treatment
  expression of p21: no effect
HUVEC [4]; 72 h, valproic acid 0.1 mM, TNP-470 20 nM
  premature senescence in HUVEC: induced premature senescence
HUVEC [4]; 72 h treatment, then fresh media for an additional 48 h
  reversibility of senescence: remained senescent
[5]; HUVEC treated for 20 h
  acetylation of p53-K382: increased the acetylation of p53-K382
[5]; HUVEC, 6 h or 20 h
  acetylation status of tubulin or histone-H3: did not change the acetylation status
[5]; HUVEC, with TSA (200 nM), 24 h, nitroxoline 20 μM
  acetylation of tubulin and histone-H3 in the presence of TSA: significantly increased the acetylation of both tubulin and histone-H3
[6]
  density of new blood vessels in Matrigel plugs: dramatic reduction in the density of new blood vessels
SirT1
  IC50: 8 µM and 8.5 µM
SirT2
  IC50: 43 µM and 35 µM
